Results taken from US20040235922A1, “Compositions and methods for inducing adipose tissue cell death” (priority 2003, published 2004).
Entries after “also recorded” stand apart in the source; their conditions may differ.

Test: 21 day oral (diet) treatment of mice: body weight, food intake, feed efficiency, body temperature, body composition by PIXImus densitometry (Example 1)
Assay type: in vivo
Settings: 21 days, ICR mice
Description: The effects of clenbuterol, a β2-AR agonist, and ractopamine, a β1/β2-AR agonist, on growth, adiposity and adipose tissue apoptosis in male and female mice have been tested by feeding diets containing control, 200 ppm clenbuterol, or 200 or 800 ppm ractopamine. Food intake (FI) was measured daily; body weight (BW) and temperatures (BT) were measured on days 0, 3, 7, 10, 14, 17, and 20. On day 21 mice were sacrificed, body composition was determined using PIXImus densitometry, and muscle and adipose tissues were collected. There were no treatment effects on BT, FI, BW, feed efficiency or body composition. Retroperitoneal (Rp) and epididymal/parametrial (Epi/Par) fat pad masses were reduced in both 800 ppm ractopamine (40±3 and 207±20 mg, respectively) and clenbuterol (35±7 and 211±22 mg) treated mice compared to control (66±8 and 319±30 mg, p<0.05). Brown adipose tissue (BAT) mass was greater (p<0.05) in clenbuterol treated mice compared to other treatments. Adipose tissue apoptosis (% DNA fragmentation) was increased in Epi/Par fat pads in clenbuterol (5.2+1.1%) and 800 ppm ractopamine (4.1±0.8%) treated mice compared to control (1.7+0.4%, p<0.05).
Animals: Five week old male (n=20) and female (n=20) ICR mice (Harlan Research Laboratories, Indianapolis, Ind.) were allowed to acclimate for one week prior to the experiment start date. Animals were housed singly in suspended wire cages and were provided ground rodent chow (ProLab® RMH 2500; Purina Mills, St. Louis, Mo.) and water ad libitum. Ambient room temperature was maintained and the light/dark cycle was 0600/1800 hours, respectively. Animals were cared for in accordance with the Guide for the Care and Use of Laboratory Animals (Institute of Laboratory Animal Resources Commission on Life Sciences National Research Council. Guide for the Care and Use of Laboratory Animals. National Academy of Sciences, 1996). Prior to the start of the study, animals were briefly anesthetized with isofluorane and an IPPT-200 transponder (programmable ID and temperature, BMDS, Seaford, Del.) was implanted subcutaneously between the scapulae.
Materials: Test articles included clenbuterol (Sigma Chemical Company, St. Louis, Mo., item # C5423) and ractopamine hydrochloride—Paylean® 9 (Elanco Animal Health, Indianapolis, Ind.). Clenbuterol is available as a pure product, and ractopamine is readily available as a type A medicated article. Paylean® 9 contains about 20 g ractopamine hydrochloride per kilogram in a ground corncob base. In order to achieve doses of 200 and 800 ppm it was necessary to add about […] of product per kilogram of diet. Control and clenbuterol diets were prepared with about 80 g of alphacel, which is a diluent used to mimic the effect of the corncob in the ractopamine product. The dose of clenbuterol used in this experiment was similar to those used in previous experiments with mice (Agbenyega E T, and Wareham A C. Effect of clenbuterol on skeletal muscle atrophy in mice induced by the glucocorticoid dexamethasone. Comp Biochem Physiol Comp Physiol 1992;102:141-145, Rothwell N. J., and Stock M J. Modification of body composition by clenbuterol in normal and dystrophic (mdx) mice. Biosci Rep 1985;5:755-760, Hyltander A, Svaninger G, and Lundholm K. The effect of clenbuterol on body composition in spontaneously eating tumour-bearing mice. Biosci Rep 1993;13:325-331, Hayes A, and Williams DA. Long-term clenbuterol administration alters the isometric contractile properties of skeletal muscle from normal and dystrophin-deficient mdx mice. Clin Exp Pharmacol Physiol 1994;21:757-765, Dupont-Versteegden EE. Exercise and clenbuterol as strategies to decrease the progression of muscular dystrophy in mdx mice. J Appl Physiol 1996;80:734-741).
Daily Observations: Food intake was measured daily, while body weight and body temperatures were measured on days 0, 3, 7, 10, 14, 17, and 20 at approximately the same time of day (1300 hours) during the treatment period. […]

CC(C)(C)NCC(O)c1cc(Cl)c(N)c(Cl)c1 (centres unmarked) [Clenbuterol, clenbuterol]
Cumulative Feed Intake (200 ppm in diet): 6.10 g
Densitometry Bone Mineral Content (200 ppm in diet): 0.65 g
Densitometry Fat (200 ppm in diet): 2.81 g
Densitometry Lean (200 ppm in diet): 26.80 g
Feed Efficiency (200 ppm in diet): 14.4
Final Body Weight (200 ppm in diet): 32.1 g
Weight Gain (200 ppm in diet): 8.90 g
Effect on body temperature, food intake, body weight, feed efficiency, body composition (diet): not significantly affected; also recorded: Neither clenbuterol nor ractopamine affected
